According to patent publication US20240307409A1, “ARGININE METHYLTRANSFERASE INHIBITOR AND USE THEREOF” (Cytosinlab Therapeutics Co., Ltd., priority 2021, published 2024):

What was measured:
PRMT1 = PRMT1 (Homo sapiens, UniProt Q99873); assay: PRMT1 enzyme activity test; format: biochemical; details: 0.5 nM PRMT1, 3H-SAM, peptide
Method: PRMT1 enzyme activity test were performed in a buffer prepared on the same day 5 consisting of 10 mMTirs-HCl (pH=8.0), 0.01% Tween-20 and 1 mM DTT. The compounds were prepared to the highest inhibitor concentration ultimately required in the 100× reaction with 100% DMSO and then transferred to one well of a 384-well Echo plate (Echo-eligible 384-well polypropylene microplates 2.0, transparent, flat-bottomed) and sequentially diluted in the next well with a 3-fold dilution of 100% DMSO, and so on, with a total of 10 concentrations based on Precision. 100% DMSO was added to two empty wells to serve as control well without compound and control well without enzyme in the same 384-well Echo plate. 250 nL of compound was transferred from each well of the 384-well Echo plate to a 384-well assay plate (384-well polypropylene storage microplate) via the Echo 550 liquid processor. For wells with compounds and control well without compound, a mixture (15 uL) containing PRMT1 enzyme was added to the 384-well assay plate. For control wells without enzyme, the mixture containing the assay buffer (15 uL) was added instead. The compounds were allowed to incubate with PRMT1 for 15 minutes at room temperature, and then a mixture containing ^3H-SAM and peptide (10 uL) was added to start the reaction (final volume=25 uL). The final concentrations of the components were as follows: 0.5 nM for PRMT1, 0.25 uM for ^3H-SAM, 0.1 uM for the peptide, and 1% DMSO. After 120 min of incubation, the assay was terminated by the addition of non-radiolabeled SAM (5 uL) to a final concentration of 125 uM, which diluted 3H-SAM to a level at which its incorporation into the peptide substrate was no longer detected. 25 μL of the reaction solution from the 384-well assay plate was then transferred to a 384-well detection plate (Streptavidin FlashPlate HTS PLUS, high volume, 384 wells). The biotinylated peptide was allowed to bind to the surface of the antibiotic protein streptavidin for at least 60 minutes at room temperature. The Flashplate was then washed three times with 0.1% Tween-20 in a BioTek plate washer. Plates were read on a microplate counter (MicroBeta2) to measure the amount of ^3H-labeled peptide bound to the surface of the detection plate, measured in counts per minute (cpm).
The raw data were copied from the Reader and the inhibition values were calculated in Excel by Equation (1), Equation (1): Inh %=(CPMmax−CPMcmpd)/(CPMmax−CPMmin)*100, wherein the Max signal was obtained from the enzyme-substrate interaction and the Min signal was obtained from the substrate. IC50 values were obtained by fitting the data through equation (2) using XLFit add-in for Excel version […]. Equation (2): Y=Bottom+(Top-Bottom)/(1+((IC50/X)[…])), wherein, Y represents inhibition percentage and X represents compound concentration.

Toledo cells = assay: Toledo cell proliferation inhibition assay; format: cell-based; details: Homo sapiens, Toledo, 144 h; six-day assay, CellTiter-Glo
Method: • A. Purpose: to determine the effects of compounds on Toledo cells through a six-day cell proliferation assay. • B. Reagents and materials: • 1. Cell culture medium: RPMI 1640+10% FBS • 2. 384-well cell culture plate (Corning, item #3764) • 3. 0.4% Taipan Blue Staining Solution (Thermo Fisher, item #T10282) • 4. cell counting plate (Thermo Fisher, item #C10228) • 5. 50 ml reagent reservoir (Corning, item #4870) • 6. 50 ml conical sterile polypropylene centrifuge tube (Thermo Fisher, item #339653) • 7. Automatic cell counter (Thermo Fisher, item #AMQAX1000) • 8. CellTiter-Glo Luminescent Cell Viability Detection Reagent (Promega, item #G7572) • 9. SpectraMax i3x Multi-Mode Enzyme Labeling Instrument (Megaman Molecular Instruments, item #5024062) • C. Experimental method • 1. Resuspending the cells with a pipette. • 2. 0.4% Taipan blue staining solution and Toledo cells were mixed in equal proportion, and the cells were counted using an automatic cell counter. • 3. Toledo cells were diluted to a final concentration of 2000 cells per well and transferred to a 50 ml reagent reservoir. • 4. Diluted Toledo cells were added to a 384-well cell culture plate, 40 ul per well. • 5. The cells were shortly centrifuged and settled. • 6. The cells were incubated in a 37° C., 5% CO2 cell culture incubator. • 7. The substrate in the CellTiter-Glo Luminescent Cell Viability Detection Reagent was mixed with the solution. • 8. After six days, the 384-well cell culture plate was taken from the incubator and 20 ul of configured CellTiter-Glo reagent was added to each well. • 9. 384-well cell culture platewasmixed in an orbital shaker for 30 minutes. • 10. Signal of luminescence was detected with a SpectraMax i3x multi-mode enzyme labeling instrument.

Chain of PRMT1 (Q99873 whole entry): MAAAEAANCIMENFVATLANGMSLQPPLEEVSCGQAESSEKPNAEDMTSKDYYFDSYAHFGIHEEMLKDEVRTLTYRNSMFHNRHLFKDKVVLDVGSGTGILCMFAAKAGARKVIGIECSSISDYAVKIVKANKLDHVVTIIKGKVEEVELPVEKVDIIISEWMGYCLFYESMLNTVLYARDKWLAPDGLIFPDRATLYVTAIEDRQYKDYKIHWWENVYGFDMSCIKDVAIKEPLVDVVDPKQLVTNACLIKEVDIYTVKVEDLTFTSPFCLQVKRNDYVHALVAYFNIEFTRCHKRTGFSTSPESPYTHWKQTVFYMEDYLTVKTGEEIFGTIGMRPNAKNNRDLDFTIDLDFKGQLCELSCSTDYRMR

Row | Compound | IC50 (PRMT1) | IC50 (Toledo cells)
1 | CNCCN(C)Cc1ccc2c(c1C1CCN(c3cccc(C)c3)CC1)CCC(=O)N2 [P155] | < 50 nM | < 1000 nM
2 | CNCCN(C)Cc1cc(C(=O)NC)ccc1C1CCN(c2cccc(C)c2)CC1 [P159] | ≥ 500 nM | ≥ 5000 nM
3 | CNCCN(C)Cc1ccc(C(=O)NC)cc1C1CCN(c2cccc(C)c2)CC1 [P160] | < 50 nM | < 1000 nM
4 | CNCCN(C)Cc1ncccc1N1CCN(C(C)C)CC1 [P161] | < 50 nM | < 1000 nM
5 | CNCCN(C)Cc1ccc(C)nc1C1CCN(c2cccc(NC)c2)CC1 [P162] | 50 to 500 nM | < 1000 nM
6 | CNCCN(C)Cc1ncccc1C1CCN(c2ccc3c(c2)CCO3)CC1 [P163] | < 50 nM | < 1000 nM
7 | CNCCN(C)Cc1ncccc1C1CCN(c2cccc3c2OCC3)CC1 [P164] | < 50 nM | 1000 to 5000 nM
8 | CNCCN(C)Cc1ncccc1N1CCC(OCc2ccccc2)CC1 [P166] | < 50 nM | < 1000 nM
9 | CNCCN(C)Cc1ncccc1C1CCN(c2ccc(OC)cc2)CC1 [P168] | < 50 nM | 1000 to 5000 nM
10 | CNCCN(C)Cc1ncccc1C1CCN(c2cccc(OC)c2)CC1 [P169] | < 50 nM | < 1000 nM
11 | CNCCN(C)Cc1ccc(F)cc1C1CCN(c2nccc(N3CCCC3)n2)CC1 [P172] | < 50 nM | < 1000 nM
12 | CCOC[C@H]1CC[C@H](c2cccnc2CN(C)CCNC)CC1 [P173] | < 50 nM | < 1000 nM
13 | CCOC[C@H]1CC[C@@H](c2cccnc2CN(C)CCNC)CC1 [P174] | < 50 nM | 1000 to 5000 nM
14 | CNCCN(C)Cc1ccc2[nH]c(C)nc2c1C1CCN(c2cccc(C)c2)CC1 [P176] | < 50 nM | < 1000 nM
15 | CNCCN(C)Cc1ncccc1N1CCCCC1 [P177] | < 50 nM | 1000 to 5000 nM
16 | CNCCN(C)Cc1ncccc1N1CCC(Oc2ccc(F)cc2)CC1 [P178] | < 50 nM | < 1000 nM
17 | CNCCN(C)Cc1ccc2c(c1C1CCN(c3cccc(C)c3)CC1)CC(=O)N2 [P180] | < 50 nM | < 1000 nM
18 | CCOCC1(CC)CCN(c2cccnc2CN(C)CCNC)CC1 [P182] | < 50 nM | < 1000 nM
19 | CNCCN(C)Cc1cc(F)c2[nH]ncc2c1C1CCN(c2cccc(C)c2)CC1 [P183] | < 50 nM | < 1000 nM
20 | CNCCN(C)Cc1ccc(C)nc1C1CCN(c2ccc(C#N)cc2)CC1 [P188] | < 50 nM | 1000 to 5000 nM
21 | CNCCN(C)Cc1ccc2[nH]cnc2c1C1CCN(c2cccc(C)c2)CC1 [P189] | < 50 nM | < 1000 nM
22 | CNCCN(C)Cc1ccc2[nH]ncc2c1C1CCN(c2cccc(C)c2)CC1 [P190, N^1,N^2-dimethyl-N^1-((4-(1-(m-tolyl)piperidin-4-yl)-1H-indazol-5-yl)methyl)ethane-1,2-dia mine] | < 50 nM | < 1000 nM
23 | CNCCN(C)Cc1ncccc1C1CCN(c2ccc(C(=O)N(C)C)cc2)CC1 [P192] | < 50 nM | ≥ 5000 nM
24 | CNCCN(C)Cc1ncccc1C1CCN(c2ccnc(C)c2)CC1 [P193] | < 50 nM | 1000 to 5000 nM
25 | CNCCN(C)Cc1ncccc1N1CCC(Nc2ccccc2)CC1 [P194] | < 50 nM | 1000 to 5000 nM
26 | CNCCN(C)Cc1ccc(CC(N)=O)cc1C1CCN(c2cccc(C)c2)CC1 [P195] | < 50 nM | < 1000 nM
27 | CCOCC1(COCC)CCC(c2cc(F)cnc2CN(C)CCNC)CC1 [P196] | < 50 nM | < 1000 nM
28 | CNCCN(C)Cc1ncccc1N1CCCC1 [P197] | ≥ 500 nM | ≥ 5000 nM
29 | CNCCN(C)Cc1ncccc1C1CCN(c2ccccc2C#N)CC1 [P201] | < 50 nM | < 1000 nM
30 | CNCCN(C)Cc1ncccc1C1CCN(C(=O)c2ccccc2)CC1 [P203] | 50 to 500 nM | ≥ 5000 nM

Further lines, with some results ahead:

Row | IC50 (PRMT1) | Compound | IC50 (Toledo cells)
31 | 50 to 500 nM | CCOCC1(COCC)CCC(c2ccncc2CN(C)CCNC)CC1 [P205] | 1000 to 5000 nM
32 | < 50 nM | CNCCN(C)Cc1ncccc1C1CCN(c2cccnc2)CC1 [P214] | 1000 to 5000 nM
33 | < 50 nM | CNCCN(C)Cc1ncccc1C1CCN(c2ccncc2)CC1 [P215] | 1000 to 5000 nM
34 | < 50 nM | CNCCN(C)Cc1ncccc1C1CCN(c2ccccn2)CC1 [P216] | 1000 to 5000 nM
35 | 50 to 500 nM | CCOCC1CCCN(c2cccnc2CN(C)CCNC)C1 (stereo not shown) [P217] | 1000 to 5000 nM
36 | < 50 nM | CCOCC1CCN(c2cccnc2CN(C)CCNC)CC1 [P218] | 1000 to 5000 nM
37 | < 50 nM | CNCCN(C)Cc1ccc(C(N)=O)cc1C1CCN(c2cccc(C)c2)CC1 [P221] | < 1000 nM
38 | < 50 nM | CCN1CC2(CCC(c3cccnc3CN(C)CCNC)CC2)CC1=O (stereo not shown) [P222] | ≥ 5000 nM
39 | < 50 nM | CNCCN(C)Cc1ncccc1N1CCC(OC(C)C)CC1 [P224] | 1000 to 5000 nM
40 | < 50 nM | CNCCN(C)Cc1nc(N)ccc1C1CCN(c2cccc(C)c2)CC1 [P227] | < 1000 nM
41 | < 50 nM | CNCCN(C)Cc1ccc2[nH]ncc2c1N1CCc2ccccc2CC1 [P228] | < 1000 nM
42 | < 50 nM | CNCCN(C)Cc1ncccc1N1CCC(Oc2ccccc2OC(F)(F)F)CC1 [P230] | < 1000 nM
43 | < 50 nM | CNCCN(C)Cc1ncccc1N1CCCC(OC)CC1 (stereo not shown) [P233] | ≥ 5000 nM
44 | 50 to 500 nM | CNCCN(C)Cc1ncccc1C1CCN(c2ccc3c(c2)OC(C)(C)O3)CC1 [P234] | 1000 to 5000 nM
45 | < 50 nM | CNCCN(C)Cc1ncccc1N1CCC(Oc2cccc(OC)c2)CC1 [P238] | < 1000 nM
46 | < 50 nM | CNCCN(C)Cc1ncccc1C1CCN(c2nc(C)nc3ccccc23)CC1 [P239] | 1000 to 5000 nM
47 | < 50 nM | CNCCN(C)Cc1ncccc1C1CCN(c2nc(C)cc(N3CCCC3)n2)CC1 [P242] | < 1000 nM
48 | 50 to 500 nM | CCOCC1(COCC)CCN(c2cccnc2CN(C)CCNC)C1 [P248] | 1000 to 5000 nM
49 | 50 to 500 nM | CNCCN(C)Cc1ncccc1C1CCN(c2cccc(C(=O)NC)c2)CC1 [P254] | ≥ 5000 nM
50 | < 50 nM | CNCCN(C)Cc1ncccc1C1CCN(c2ccc(C(=O)NC)cc2)CC1 [P255] | 1000 to 5000 nM
51 | < 50 nM | CNCCN(C)Cc1ncccc1N1CCC(Oc2ccc(-n3ccnc3)cc2)CC1 [P259] | 1000 to 5000 nM
52 | < 50 nM | CNCCN(C)Cc1ncccc1N1CCCOCC1 [P260] | 1000 to 5000 nM
53 | < 50 nM | CNCCN(C)Cc1ncccc1C1CCN(c2cc(C)nc(C)n2)CC1 [P262] | 1000 to 5000 nM
54 | ≥ 500 nM | CNCCN(C)Cc1ncccc1N1CCC(NC2CCOCC2)CC1 [P263] | ≥ 5000 nM
55 | < 50 nM | CCOCC1(COCC)CCC(c2c(CN(C)CCNC)ccc3[nH]ncc23)CC1 [P266, N1-((4-(4,4-bis(ethoxymethyl)cyclohexyl)-1H-indazol-5-yl)methyl)-N1,N2-dimethylethane-1,2-diamine] | < 1000 nM
56 | < 50 nM | CNCCN(C)Cc1ncccc1N1CCC(Oc2ccncc2)CC1 [P267] | 1000 to 5000 nM
